Laboratory results published in patent publication US8293781B2, “Indole derivatives having cPLA2 inhibiting activity and applications and production methods of the same” (Daiichi Sankyo Company, Limited, priority 2007, dated 2012).
Structures can show the parent of a compound that is named as a salt. Blank lines part the entries; values can stand above or below the compound they belong to.

Assays:
[1] = target: T1, cPLA2 crudely purified from the cytoplasm fraction of U937 (Homo sapiens, UniProt P47712); test: Measurement of cPLA2 inhibitory activity (release of [14C]-arachidonic acid from phosphatidyl choline liposome); format: biochemical; settings: cPLA2 from U937 cytoplasm fraction, [14C]arachidonyl-phosphatidyl choline liposome, 37° C., 60 minutes; read-out: cPLA2 inhibitory activity, 50% inhibiting concentration IC50
T1 construct: cPLA2 crudely purified from the cytoplasm fraction of U937; endogenous in cells; host or cells: U937 cells (cytoplasm fraction, crude purification)
T1 sequence (P47712 1-749): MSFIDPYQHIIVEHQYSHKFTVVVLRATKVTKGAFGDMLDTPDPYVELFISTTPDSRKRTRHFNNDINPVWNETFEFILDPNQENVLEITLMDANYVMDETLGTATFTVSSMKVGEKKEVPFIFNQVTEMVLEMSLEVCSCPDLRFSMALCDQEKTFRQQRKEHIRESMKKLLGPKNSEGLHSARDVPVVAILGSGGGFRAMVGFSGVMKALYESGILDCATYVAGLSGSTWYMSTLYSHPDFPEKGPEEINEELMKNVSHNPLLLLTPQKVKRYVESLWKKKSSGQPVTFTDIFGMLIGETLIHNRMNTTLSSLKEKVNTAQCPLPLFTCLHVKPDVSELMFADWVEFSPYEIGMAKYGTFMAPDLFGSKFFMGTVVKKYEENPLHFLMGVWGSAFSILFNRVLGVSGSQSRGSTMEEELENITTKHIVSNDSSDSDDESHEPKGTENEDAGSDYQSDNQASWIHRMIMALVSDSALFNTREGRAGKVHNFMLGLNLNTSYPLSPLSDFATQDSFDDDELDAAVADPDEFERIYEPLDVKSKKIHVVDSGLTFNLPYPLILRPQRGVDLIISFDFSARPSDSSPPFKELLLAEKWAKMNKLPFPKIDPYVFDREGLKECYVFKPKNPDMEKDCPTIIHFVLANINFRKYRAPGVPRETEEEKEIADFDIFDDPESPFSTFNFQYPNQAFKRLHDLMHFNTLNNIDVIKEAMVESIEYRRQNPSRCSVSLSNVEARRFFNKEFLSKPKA
Summary of the method: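 The read-out is radioactivity from extracted [14C]-arachidonic acid, freed over 60 min at 37° C from liposomes of 14C-arachidonyl phosphatidylcholine (10 μM PC in the added solution). Buffer was 50 mM HEPES pH 7.5 with Ca2+, DTT, NaCl and BSA. IC50 was derived from inhibition relative to enzyme control minus no-enzyme control.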

[2] = tested on: guinea pig antigen induced bronchial asthma model; test: Guinea pig antigen induced bronchial asthma model: airway hyperreactivity to acetyl choline; format: in vivo; settings: 22 to 24 hours after inducement
Method: (§1) Hartley male guinea pigs (Kyudo Co., Ltd.) were sensitized by inhaling the aerosolized 1% OVA-containing physiological saline solution for consecutive 8 days. One week after the final sensitization, antigen antibody reaction was elicited by inhaling the aerosolized 2% OVA-containing physiological saline solution. 24 hours and 1 hour before antigen challenge, metyrapone (10 mg/kg, 1.0 ml/kg) was injected to the hind limb peripheral vein. 30 minutes before antigen challenge, pyrilamine maleate (10 mg/kg, 1.0 ml/kg) was administered intraperitoneally. The test compound (5 mg/kg and 20 mg/kg, 5.0 ml/kg) was administered once a day from the day after the final sensitization to the day before challenge. On the day of challenge, it was administered orally 1 hour before challenge and 8 hours after challenge. Note that the number of mice used in the test was made eight per group.
The airway hyperreactivity was measured 22 to 24 hours after inducement. Physiological saline solution and acetyl choline in 0.0625, 0.125, 0.25, 0.5, 1, and 2 mg/ml amounts in physiological saline solutions were successively nebulized and made to be inhaled by guinea pigs 1 minute at a time each, then the sRaw was measured by a total respiratory function analysis system (Pulmos-I, made by M.I.P.S.) The results of evaluation of typical compounds are shown in Table 9 for different acetyl choline concentrations (PC100Ach, mg/ml) inducing 100% airway resistance.

[3] = tested on: guinea pig antigen induced bronchial asthma model; test: Guinea pig antigen induced bronchial asthma model: infiltrating cells in BALF; format: in vivo
Method: as §1
The number of cells in a bronchial alveolar lavage fluid was counted after measurement of the airway hyperreactivity. Each guinea pig was exsanguinated under anesthesia, its chest was opened, a cannular was inserted into the trachea, then physiological saline was injected into and sucked out from the lungs to recover the bronchial alveolar lavage fluid (BALF). The BALF was centrifugally separated, the obtained precipitate (pellets) was suspended in physiological saline and the total number of cells per 1 μl was calculated by an automatic blood cell counting system (Sysmex F-820). The total number of cells was calculated, then the sample was again centrifugally separated and the obtained pellets were hemolyzed, diluted, centrifuged, and dried, then stained by May-Greenwald's-Giemsa dye. Using a microscope, the ratios of the macrophages, eosinophil granulocytes, neutrophils, and lymphocytes to the total blood cell count (total number of cells) were found and the ratios used to calculate the numbers of cells per μl. The inhibiting rate was found as a percent (%) of the value of the number of cells of the control vehicle administered group minus the number of cells of each compound administered group with respect to the value of the number of cells of the vehicle administered group minus the number of cells of the negative control saline inhalation group.

IC50 [1]: 0.014 µM
SMILES: O=C(O)CCc1ccc2c(c1)c(CCc1ccccc1)cn2-c1ccc(OCCO)cc1 [Example 229, 3-{1-[4-(2-hydroxyethoxy)phenyl]-3-(2-phenylethyl)-1H-indol-5-yl}propanoic acid 2-amino-2-(hydroxymethyl)propane-1,3-diol salt (1:1)]
PC100ACh (acetyl choline concentration inducing 100% airway resistance) ([2]; 5 mg/kg oral): 0.47 mg/mL
PC100ACh (acetyl choline concentration inducing 100% airway resistance) ([2]; 20 mg/kg oral): 0.74 mg/mL
Inhibitory rate of infiltrating cells in BALF: Eosinophils ([3]; 5 mg/kg oral): 51%
Inhibitory rate of infiltrating cells in BALF: Lymphocytes ([3]; 5 mg/kg oral): 11%
Inhibitory rate of infiltrating cells in BALF: Macrophages ([3]; 5 mg/kg oral): 58%
Inhibitory rate of infiltrating cells in BALF: Neutrophils ([3]; 5 mg/kg oral): 0%
Inhibitory rate of infiltrating cells in BALF: Total number of cells ([3]; 5 mg/kg oral): 30%
Inhibitory rate of infiltrating cells in BALF: Eosinophils ([3]; 20 mg/kg oral): 46%
Inhibitory rate of infiltrating cells in BALF: Lymphocytes ([3]; 20 mg/kg oral): 12%
Inhibitory rate of infiltrating cells in BALF: Macrophages ([3]; 20 mg/kg oral): 46%
Inhibitory rate of infiltrating cells in BALF: Neutrophils ([3]; 20 mg/kg oral): 16%
Inhibitory rate of infiltrating cells in BALF: Total number of cells ([3]; 20 mg/kg oral): 35%

IC50 [1]: 0.058 µM
SMILES: O=C(O)CCc1ccc2c(c1)c(CCc1ccccc1)cn2-c1ccc(F)cc1 [Example 187, 3-[1-(4-fluorophenyl)-3-(2-phenylethyl)-1H-indol-5-yl]propanoic acid]

IC50 [1]: 0.028 µM
SMILES: O=C(O)CCc1ccc2c(c1)c(CCc1ccccc1)cn2-c1ccc(OC(F)F)cc1 [Example 190, 3-{1-[4-(difluoromethoxy)phenyl]-3-(2-phenylethyl)-1H-indol-5-yl}propanoic acid 2-amino-2-(hydroxymethyl)propane-1,3-diol salt (1:1)]
PC100ACh (acetyl choline concentration inducing 100% airway resistance) ([2]; 5 mg/kg oral): 0.57 mg/mL
PC100ACh (acetyl choline concentration inducing 100% airway resistance) ([2]; 20 mg/kg oral): 0.50 mg/mL
Inhibitory rate of infiltrating cells in BALF: Eosinophils ([3]; 5 mg/kg oral): 41%
Inhibitory rate of infiltrating cells in BALF: Lymphocytes ([3]; 5 mg/kg oral): 30%
Inhibitory rate of infiltrating cells in BALF: Macrophages ([3]; 5 mg/kg oral): 66%
Inhibitory rate of infiltrating cells in BALF: Neutrophils ([3]; 5 mg/kg oral): 0%
Inhibitory rate of infiltrating cells in BALF: Total number of cells ([3]; 5 mg/kg oral): 33%
Inhibitory rate of infiltrating cells in BALF: Eosinophils ([3]; 20 mg/kg oral): 76%
Inhibitory rate of infiltrating cells in BALF: Lymphocytes ([3]; 20 mg/kg oral): 42%
Inhibitory rate of infiltrating cells in BALF: Macrophages ([3]; 20 mg/kg oral): 76%
Inhibitory rate of infiltrating cells in BALF: Neutrophils ([3]; 20 mg/kg oral): 37%
Inhibitory rate of infiltrating cells in BALF: Total number of cells ([3]; 20 mg/kg oral): 62%

SMILES: O=C(O)CCc1ccc2c(c1)c(CCc1ccccc1)cn2-c1ccc(Oc2ccccc2)cc1 [Example 231, 3-[1-(4-phenoxyphenyl)-3-(2-phenylethyl)-1H-indol-5-yl]propanoic acid 2-amino-2-(hydroxymethyl)propane-1,3-diol salt (1:1)]
IC50 [1]: 0.02 µM
PC100ACh (acetyl choline concentration inducing 100% airway resistance) ([2]; 5 mg/kg oral): 1.02 mg/mL
PC100ACh (acetyl choline concentration inducing 100% airway resistance) ([2]; 20 mg/kg oral): 1.09 mg/mL
Inhibitory rate of infiltrating cells in BALF: Eosinophils ([3]; 5 mg/kg oral): 58%
Inhibitory rate of infiltrating cells in BALF: Lymphocytes ([3]; 5 mg/kg oral): 45%
Inhibitory rate of infiltrating cells in BALF: Macrophages ([3]; 5 mg/kg oral): 80%
Inhibitory rate of infiltrating cells in BALF: Neutrophils ([3]; 5 mg/kg oral): 38%
Inhibitory rate of infiltrating cells in BALF: Total number of cells ([3]; 5 mg/kg oral): 58%
Inhibitory rate of infiltrating cells in BALF: Eosinophils ([3]; 20 mg/kg oral): 69%
Inhibitory rate of infiltrating cells in BALF: Lymphocytes ([3]; 20 mg/kg oral): 55%
Inhibitory rate of infiltrating cells in BALF: Macrophages ([3]; 20 mg/kg oral): 85%
Inhibitory rate of infiltrating cells in BALF: Neutrophils ([3]; 20 mg/kg oral): 64%
Inhibitory rate of infiltrating cells in BALF: Total number of cells ([3]; 20 mg/kg oral): 72%

IC50 [1]: 0.047 µM
SMILES: COCc1ccc(-n2cc(CCc3ccccc3)c3cc(CCC(=O)O)ccc32)cc1 [Example 217, 3-{1-[4-(methoxymethyl)phenyl]-3-(2-phenylethyl)-1H-indol-5-yl}propanoic acid 2-amino-2-(hydroxymethyl)propane-1,3-diol salt (1:1)]

IC50 [1]: 0.011 µM
SMILES: O=C(O)CCc1ccc2c(c1)c(CCc1ccccc1)cn2-c1ccc(O)cc1 [Example 126, 3-[1-(4-hydroxyphenyl)-3-(2-phenylethyl)-1H-indol-5-yl]propanoic acid]
